Data: ChEMBL document CHEMBL3421575, “Cyclopropyl-containing positive allosteric modulators of metabotropic glutamate receptor subtype 5” (Bioorg Med Chem Lett, 2015)

How the values were obtained:
[1] = Cytotoxicity against mouse BV2 cells assessed as cell viability by cytotox nonradioactive assay; type: cell-based; details: bv-2
[2] = biological target: Metabotropic glutamate receptor 5 (Mus musculus, UniProt Q3UVX5); experiment: Positive allosteric modulation at mGluR5 in mouse BV2 cells assessed as inhibition of LPS-induced NO production incubated for 1 hr prior to LPS challenge measured after 24 hrs by Griess assay; type: cell-based, BV-2
Metabotropic glutamate receptor 5, sequence (Q3UVX5 whole entry): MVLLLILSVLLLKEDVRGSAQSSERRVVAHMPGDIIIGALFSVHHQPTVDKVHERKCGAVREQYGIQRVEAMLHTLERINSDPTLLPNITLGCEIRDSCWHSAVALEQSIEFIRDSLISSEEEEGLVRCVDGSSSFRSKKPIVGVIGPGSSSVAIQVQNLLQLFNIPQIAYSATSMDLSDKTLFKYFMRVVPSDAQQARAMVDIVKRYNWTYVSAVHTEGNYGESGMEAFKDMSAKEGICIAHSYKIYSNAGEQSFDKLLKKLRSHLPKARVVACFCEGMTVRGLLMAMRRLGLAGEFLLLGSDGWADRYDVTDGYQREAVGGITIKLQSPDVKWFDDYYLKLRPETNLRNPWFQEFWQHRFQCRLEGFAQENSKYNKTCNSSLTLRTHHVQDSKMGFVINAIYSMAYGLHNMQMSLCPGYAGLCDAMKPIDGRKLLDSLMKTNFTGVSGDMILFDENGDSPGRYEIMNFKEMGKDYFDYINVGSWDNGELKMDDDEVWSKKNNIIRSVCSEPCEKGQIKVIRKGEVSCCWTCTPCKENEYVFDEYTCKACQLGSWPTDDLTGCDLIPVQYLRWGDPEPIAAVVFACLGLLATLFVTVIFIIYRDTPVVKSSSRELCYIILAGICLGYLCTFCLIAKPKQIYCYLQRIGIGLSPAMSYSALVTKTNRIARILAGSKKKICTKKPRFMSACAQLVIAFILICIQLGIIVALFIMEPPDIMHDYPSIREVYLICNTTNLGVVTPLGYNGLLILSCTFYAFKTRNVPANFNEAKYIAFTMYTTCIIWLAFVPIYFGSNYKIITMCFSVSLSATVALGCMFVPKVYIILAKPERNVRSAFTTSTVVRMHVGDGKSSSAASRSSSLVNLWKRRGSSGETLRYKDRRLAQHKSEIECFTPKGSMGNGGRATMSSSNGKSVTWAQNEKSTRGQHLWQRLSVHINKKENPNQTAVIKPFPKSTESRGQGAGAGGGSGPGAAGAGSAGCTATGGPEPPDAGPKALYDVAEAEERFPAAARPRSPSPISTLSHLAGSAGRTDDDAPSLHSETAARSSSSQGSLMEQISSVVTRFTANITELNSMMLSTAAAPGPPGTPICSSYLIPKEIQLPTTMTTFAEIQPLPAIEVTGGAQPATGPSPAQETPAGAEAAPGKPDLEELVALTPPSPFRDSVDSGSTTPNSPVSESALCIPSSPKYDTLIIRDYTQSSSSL

[3] = tested on: mGluR5; experiment: Selectivity index, ratio of cytotoxicity for mouse BV2 cells to IC50 for mGluR5 in mouse BV2 cells; type: toxicity, cell-based, BV-2; details: read-out: Selectivity Index

IC50 [2] | Compound | Cytotoxic concentration [1] | selectivity ratio [3]
 | Fc1cccc(/C=N/N=C/c2cccc(F)c2)c1 | 500 µM | 
210 µM | O=C(Nc1ccccc1F)[C@H]1C[C@@H]1c1cccc(F)c1 (racemic) | 1000 µM | 4.76
160 µM | O=C(Nc1ccc(F)cc1)[C@H]1C[C@@H]1c1cccc(F)c1 (racemic) | 1000 µM | 6.25
180 µM | O=C(Nc1ccccc1Cl)[C@H]1C[C@@H]1c1cccc(F)c1 (racemic) | 1000 µM | 5.68
46 µM | COc1cc(Br)ccc1NC(=O)[C@H]1C[C@@H]1c1cccc(F)c1 (racemic) | 1000 µM | 21.8
46 µM | O=C(Nc1nc2ccccc2s1)[C@H]1C[C@@H]1c1cccc(F)c1 (racemic) | 300 µM | 6.49
21 µM | O=C(Nc1nc2ccccc2[nH]1)[C@H]1C[C@@H]1c1cccc(F)c1 (racemic) | 300 µM | 14.6
230 µM | COc1cc(Br)ccc1NC(=O)[C@H]1C[C@@H]1c1cccc(Cl)c1 (racemic) | 1000 µM | 4.37
67 µM | O=C(Nc1nc2ccccc2[nH]1)[C@H]1C[C@@H]1c1cccc(Cl)c1 (racemic) | 400 µM | 5.96
30 µM | O=C(N[C@H]1C[C@@H]1c1cccc(F)c1)c1cccc(F)c1 (racemic) | 1000 µM | 33
130 µM | O=C(N[C@H]1C[C@@H]1c1cccc(F)c1)c1cccc([N+](=O)[O-])c1 (racemic) | 400 µM | 3.01
200 µM | O=C(N[C@H]1C[C@@H]1c1cccc(F)c1)c1ccc([N+](=O)[O-])cc1 (racemic) | 200 µM | 1.02
170 µM | O=C(N[C@H]1C[C@@H]1c1cccc(F)c1)c1ccccn1 (racemic) | 800 µM | 4.6
58 µM | O=C(Nc1ccc(F)cc1)[C@H]1C[C@@H]1c1cccc(Cl)c1 (relative stereo) | 1000 µM | 17.4
71 µM | O=C(Nc1ccccc1Cl)[C@H]1C[C@@H]1c1cccc(Cl)c1 (relative stereo) | 1000 µM | 14.1
200 µM | O=C(N[C@H]1C[C@@H]1c1cccc(F)c1)c1cccc(Cl)c1 (relative stereo) | 1000 µM | 5.03
